Reference: patent US9273058B2 (BRISTOL-MYERS SQUIBB COMPANY, priority 2013, dated 2016)
Where two headings read alike, the source gives them in different places.

Legend:
pancreatic tumor cell [1] = settings: in vitro; Brockschmidt et al., Gut 2008; cited from earlier work
pancreatic tumor cell [2] = settings: in vivo; Brockschmidt et al., Gut 2008; cited from earlier work
CK1ε = CK1ε (Homo sapiens, UniProt P49674); assay: CK1ε kinase assay (Caliper LabChip electrophoretic separation of fluoresceinated peptide substrate and product); type: biochemical; settings: 200 pM CK1ε, 50 μM ATP, 1.5 μM peptide, 22 hours at room temperature
Sequence of CK1ε (P49674 whole entry): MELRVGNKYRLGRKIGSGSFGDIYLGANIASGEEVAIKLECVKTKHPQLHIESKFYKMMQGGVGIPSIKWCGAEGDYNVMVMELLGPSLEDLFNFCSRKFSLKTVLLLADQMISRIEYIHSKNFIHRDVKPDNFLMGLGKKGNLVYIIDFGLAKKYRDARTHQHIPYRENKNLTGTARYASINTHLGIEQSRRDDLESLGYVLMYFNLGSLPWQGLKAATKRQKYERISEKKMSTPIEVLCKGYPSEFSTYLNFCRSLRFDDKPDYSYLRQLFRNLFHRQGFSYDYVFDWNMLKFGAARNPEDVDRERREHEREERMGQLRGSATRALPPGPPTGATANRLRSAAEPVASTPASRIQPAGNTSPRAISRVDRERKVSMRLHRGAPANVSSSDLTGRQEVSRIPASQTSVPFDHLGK
Outline: (§1)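 Incubated for twenty-two hours at ambient temperature, then quenched with EDTA and analyzed by electrophoretic separation of unphosphorylated and phosphorylated peptide.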

CK1δ = CK1δ (Homo sapiens, UniProt P48730); assay: CK1δ kinase assay (Caliper LabChip electrophoretic separation of fluoresceinated peptide substrate and product); type: biochemical; settings: 200 pM CK1δ, 50 μM ATP, 1.5 μM peptide, 22 hours at room temperature
Sequence of CK1δ (P48730 whole entry): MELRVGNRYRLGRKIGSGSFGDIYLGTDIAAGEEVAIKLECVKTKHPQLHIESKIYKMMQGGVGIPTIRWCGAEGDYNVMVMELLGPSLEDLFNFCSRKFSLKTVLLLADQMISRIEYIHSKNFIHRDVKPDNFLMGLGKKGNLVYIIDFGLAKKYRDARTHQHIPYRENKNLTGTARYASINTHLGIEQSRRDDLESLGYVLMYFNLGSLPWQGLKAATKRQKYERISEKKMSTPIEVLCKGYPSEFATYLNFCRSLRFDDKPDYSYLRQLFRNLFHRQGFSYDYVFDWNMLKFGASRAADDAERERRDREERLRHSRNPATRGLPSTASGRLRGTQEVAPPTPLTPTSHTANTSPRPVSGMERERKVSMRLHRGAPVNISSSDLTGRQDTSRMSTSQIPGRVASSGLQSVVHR
Outline: as §1

SMILES: COc1cc(OC)c(C=C2C(O)=Nc3ccccc32)c(OC)c1 [IC261]
- pancreatic tumor cell growth (pancreatic tumor cell [1]): reduces pancreatic tumor cell growth
- pancreatic tumor cell growth (pancreatic tumor cell [2]): reduces pancreatic tumor cell growth

SMILES: CC(C)(C)NC(=O)N1Cc2c(C(N)=O)c(-c3ccc(Cl)c(Cl)c3)nn2C(C(F)F)C1 (stereo not drawn) [Compound A31, N^5-(tert-Butyl)-2-(3,4-dichlorophenyl)-7-(difluoromethyl)-6,7-dihydropyrazolo[1,5-a]pyrazine-3,5(4H)-dicarboxamide]
- IC50 (CK1ε; read-out: CK1ε IC50 range): 10 to 100 nM
- IC50 (CK1δ; read-out: CK1δ IC50 range): 10 to 100 nM

SMILES: CC1(C)C2CCC1(NC(=O)N1CCn3nc(-c4ccc(F)c(Cl)c4)c(C(N)=O)c3C1)CC2O (stereo not drawn) [Compound A66, 2-(3-Chloro-4-fluorophenyl)-N^5-(3-hydroxy-7,7-dimethylbicyclo[2.2.1]heptan-1-yl)-6,7-dihydropyrazolo[1,5-a]pyrazine-3,5(4H)-dicarboxamide]
- IC50 (CK1ε; read-out: CK1ε IC50 range): 0.01 to 10 nM
- IC50 (CK1δ; read-out: CK1δ IC50 range): 0.01 to 10 nM

SMILES: NC(=O)c1c(-c2ccc(Cl)c(Cl)c2)nn2c1CN(C(=O)N[C@H]1C[C@H](F)C1)CC2 [Compound 202, 2-(3,4-Dichlorophenyl)-N^5-((1r,3r)-3-fluorocyclobutyl)-6,7-dihydropyrazolo[1,5-a] pyrazine-3,5(4H)-dicarboxamide]
- IC50 (CK1ε; read-out: CK1ε IC50 range): 0.01 to 10 nM
- IC50 (CK1δ; read-out: CK1δ IC50 range): 0.01 to 10 nM

SMILES: CC(C)(C)NC(=O)N1CCn2nc(-c3ccc(F)c(C(F)(F)F)c3)c(C(N)=O)c2C1 [Compound 139, N^5-(tert-Butyl)-2-(4-fluoro-3-(trifluoromethyl)phenyl)-6,7-dihydropyrazolo[1,5-a] pyrazine-3,5(4H)-dicarboxamide]
- IC50 (CK1ε; read-out: CK1ε IC50 range): 100 to 2000 nM
- IC50 (CK1δ; read-out: CK1δ IC50 range): 10 to 100 nM

SMILES: CNC(=O)C(C)(C)NC(=O)N1CCn2nc(-c3ccc(F)c(Cl)c3)c(C(N)=O)c2C1 [Compound 214, 2-(3-Chloro-4-fluorophenyl)-N^5-(2-methyl-1-(methylamino)-1-oxopropan-2-yl)-6,7-dihydropyrazolo[1,5-a] pyrazine-3,5(4H)-dicarboxamide]
- IC50 (CK1ε; read-out: CK1ε IC50 range): 10 to 100 nM
- IC50 (CK1δ; read-out: CK1δ IC50 range): 10 to 100 nM

SMILES: CC(C)(O)C12CCC(NC(=O)N3CCn4nc(-c5ccc(F)c(Cl)c5)c(C(N)=O)c4C3)(CC1)CC2 [Compound A62, 2-(3-Chloro-4-fluorophenyl)-N^5-(4-(2-hydroxypropan-2-yl)bicyclo[2.2.2]octan-1-yl)-6,7-dihydropyrazolo[1,5-a]pyrazine-3,5(4H)-dicarboxamide]
- IC50 (CK1ε; read-out: CK1ε IC50 range): 0.01 to 10 nM
- IC50 (CK1δ; read-out: CK1δ IC50 range): 0.01 to 10 nM

SMILES: NC(=O)c1c(-c2cccc(Cl)c2)nn2c1CN(C(=O)NC1CC3(CC3)C1)CC2 [Compound 181, 2-(3-Chlorophenyl)-N^5-(spiro[2.3]hexan-5-yl)-6,7-dihydropyrazolo[1,5-a]pyrazine-3,5(4H)-dicarboxamide]
- IC50 (CK1ε; read-out: CK1ε IC50 range): 0.01 to 10 nM
- IC50 (CK1δ; read-out: CK1δ IC50 range): 0.01 to 10 nM

SMILES: CC(C)(C)C1CN(C(=O)NC2CC(F)(F)C2)Cc2c(C(N)=O)c(-c3ccc(F)c(Cl)c3)nn21 (single isomer, unassigned) [Compound A121, 7-(tert-Butyl)-2-(3-chloro-4-fluorophenyl)-N5-(3,3-difluorocyclobutyl)-6,7-dihydropyrazolo[1,5-a]pyrazine-3,5(4H)-dicarboxamide]
- IC50 (CK1ε; read-out: CK1ε IC50 range): 10 to 100 nM
- IC50 (CK1δ; read-out: CK1δ IC50 range): 100 to 2000 nM

SMILES: NC(=O)c1c(-c2ccc(F)c(Cl)c2)nn2c1CN(C(=O)NC13CCC(CF)(CC1)CC3)CC2 [Compound A56, 2-(3-Chloro-4-fluorophenyl)-N^5-(4-(fluoromethyl)bicyclo[2.2.2]octan-1-yl)-6,7-dihydropyrazolo[1,5-a]pyrazine-3,5(4H)-dicarboxamide]
- IC50 (CK1ε; read-out: CK1ε IC50 range): 0.01 to 10 nM
- IC50 (CK1δ; read-out: CK1δ IC50 range): 0.01 to 10 nM

SMILES: NC(=O)c1c(-c2cccc(F)c2)nn2c1CN(C(=O)Nc1ccc(Cl)cc1C(F)(F)F)CC2 [Compound 57, N^5-(4-Chloro-2-(trifluoromethyl)phenyl)-2-(3-fluorophenyl)-6,7-dihydropyrazolo[1,5-a]pyrazine-3,5(4H)-dicarboxamide]
- IC50 (CK1ε; read-out: CK1ε IC50 range): 100 to 2000 nM
- IC50 (CK1δ; read-out: CK1δ IC50 range): 10 to 100 nM

SMILES: NC(=O)c1c(-c2ccc(Cl)c(Cl)c2)nn2c1CN(C(=O)N[C@H]1C[C@H](OC(F)(F)F)C1)CC2 [compound 265]
- IC50 (CK1ε; read-out: CK1ε IC50 range): 0.01 to 10 nM
- IC50 (CK1δ; read-out: CK1δ IC50 range): 0.01 to 10 nM

SMILES: N#Cc1ccc(O[C@H]2C[C@H](NC(=O)N3CCn4nc(-c5ccc(F)c(Cl)c5)c(C(N)=O)c4C3)C2)cc1 [Compound 266, 2-(3-Chloro-4-fluorophenyl)-N^5-((1r,3r)-3-(4-cyanophenoxyl)cyclobutyl)-6,7-dihydropyrazolo[1,5-a]pyrazine-3,5(4H)-dicarboxamide]
- IC50 (CK1ε; read-out: CK1ε IC50 range): 0.01 to 10 nM
- IC50 (CK1δ; read-out: CK1δ IC50 range): 0.01 to 10 nM

SMILES: CC(C)(COC(F)(F)F)NC(=O)N1CCn2nc(-c3ccc(F)c(Cl)c3)c(C(N)=O)c2C1 [Compound 212, 2-(3-Chloro-4-fluorophenyl)-N^5-(2-methyl-1-(trifluoromethoxy)propan-2-yl)-6,7-dihydropyrazolo[1,5-a]pyrazine-3,5(4H)-dicarboxamide]
- IC50 (CK1ε; read-out: CK1ε IC50 range): 0.01 to 10 nM
- IC50 (CK1δ; read-out: CK1δ IC50 range): 0.01 to 10 nM

SMILES: NC(=O)c1c(-c2ccc(Cl)c(Cl)c2)nn2c1CN(C(=O)NC13CCC(c4ccc(F)cc4)(CC1)CC3)CC2 [Compound A89, 2-(3,4-Dichlorophenyl)-N^5-(4-(4-fluorophenyl)bicyclo[2.2.2]octan-1-yl)-6,7-dihydropyrazolo[1,5-a]pyrazine-3,5(4H)-dicarboxamide]
- IC50 (CK1ε; read-out: CK1ε IC50 range): 0.01 to 10 nM
- IC50 (CK1δ; read-out: CK1δ IC50 range): 0.01 to 10 nM

SMILES: CC(C)(C)NC(=O)N1CCn2nc(-c3ccc(C#N)cc3)c(C(N)=O)c2C1 [Compound 127, N^5-(tert-Butyl)-2-(4-cyanophenyl)-6,7-dihydropyrazolo[1,5-a] pyrazine-3,5(4H)-dicarboxamide]
- IC50 (CK1ε; read-out: CK1ε): 444 nM
- IC50 (CK1ε; read-out: CK1ε IC50 range): 100 to 2000 nM
- IC50 (CK1δ; read-out: CK1δ): 357 nM
- IC50 (CK1δ; read-out: CK1δ IC50 range): 100 to 2000 nM

SMILES: NC(=O)c1c(-c2ccc(F)c(Cl)c2)nn2c1CN(C(=O)NC1CC3(C1)CC(F)(F)C3)CC2 [Compound 196, 2-(3-Chloro-4-fluorophenyl)-N^5-(6,6-difluorospiro[3.3]heptan-2-yl)-6,7-dihydropyrazolo[1,5-a] pyrazine-3,5(4H)-dicarboxamide]
- IC50 (CK1ε; read-out: CK1ε IC50 range): 0.01 to 10 nM
- IC50 (CK1δ; read-out: CK1δ IC50 range): 0.01 to 10 nM
